From patent US8044029B2, “Sulfatides for treatment of autoimmune disorders” (Torrey Pines Institute for Molecular Studies, priority 2005, dated 2011)

Test system: chronic-relapsing EAE in SJL/J mice
Assay: Chronic-relapsing EAE, PLP139-151-immunized SJL/J mice
Type: in vivo, mouse
Details: 20 μg intraperitoneally at the onset of EAE, FIG. 3
Description: Wild type, SJL/J female mice, 6-8 week of age were immunized once subcutaneously with 75 μg of proteolipid protein peptide PLP139-151 emulsified in incomplete Freund's adjuvant (Difco, Detroit, Mich., USA) supplemented with attenuated M. tuberculosis (DIFCO) to 2 mg/ml. Mice were observed daily for signs of EAE for 50 days. The average disease score for each group was calculated by averaging the maximum severity of all of the affected animals in the group. Disease severity was scored on a 5-point scale, as described earlier: 1, flaccid tail; 2, hind limb weakness; 3, hind limb paralysis; 4, whole body paralysis; 5, moribund or death.
In the treatment protocol, 20 μg of bovine brain sulfatide in 200 μl of PBS or vehicle was given intraperitoneally at the onset of EAE and 2 weeks later. […]
Wild type, SJL/J female mice, 6-8 wk of age were immunized once subcutaneously with 75 μg of PLP139-151 peptide emulsified in IFA (DIFCO) supplemented with attenuated M. tuberculosis (DIFCO) to 2 mg/ml. […] The average disease score for each group was calculated by averaging the maximum severity of all of the affected animals in the group. Disease severity was scored on a 5-point scale, as described earlier: 1, flaccid tail; 2, hind limb weakness; 3, hind limb paralysis; 4, whole body paralysis; 5, moribund or death. […]

CCCCCCCC/C=C\CCCCCCCCCCCCCC(=O)N[C@@H](CO[C@@H]1O[C@H](CO)[C@H](O)[C@H](OS(=O)(=O)O)[C@H]1O)[C@H](O)/C=C/CCCCCCCCCCCCC [cis-tetracosenoyl sulfatide, (2S, 3R, 4E)-N-nervonic-1-[-D-(3-sulfate)-galactopyranosyl]-2-amino-octadecene-3-ol]
effect on ongoing chronic-relapsing EAE (disease score, 5-point scale): reverses ongoing chronic-relapsing EAE
